Experimental data: PubChem BioAssay AID248 (DTP/NCI, 2004)
Toxic doses and inconclusive results are not listed. Rule as the data show it: active = T/C of 150% or more; inactive = T/C below 125%.

System: L1210 leukemia ip in BDF1 mice, survival T/C
Assay: NCI In Vivo Anticancer Drug Screen. Data for tumor model L1210 Leukemia (intraperitoneal) in B6D2F1 (BDF1) mice
Details: endpoint: mean survival time, higher = longer survival
Method in brief: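 Mice bearing the transplanted tumor received compound or vehicle. Survival of the treated group was divided by that of the vehicle-treated control group to give the ratio.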

[1] = dose: 100.0 mg/kg/injection, schedule: Q01DX009 (ip), vehicle: saline with Tween-80
[2] = dose: 200.0 mg/kg/injection, schedule: Q01DX009 (ip), vehicle: saline with Tween-80
[3] = dose: 400.0 mg/kg/injection, schedule: Q01DX009 (ip), vehicle: saline with Tween-80
[4] = dose: 100.0 mg/kg/injection, schedule: Q04DX002 (ip), vehicle: Klucel (hydroxypropylcellulose) (HPC)
[5] = dose: 200.0 mg/kg/injection, schedule: Q04DX002 (ip), vehicle: Klucel (hydroxypropylcellulose) (HPC)
[6] = dose: 400.0 mg/kg/injection, schedule: Q04DX002 (ip), vehicle: Klucel (hydroxypropylcellulose) (HPC)
[7] = dose: 100.0 mg/kg/injection, schedule: Q01DX009 (ip), vehicle: Klucel (hydroxypropylcellulose) (HPC)
[8] = dose: 100.0 mg/kg/injection, schedule: Q04DX003 (ip), vehicle: Klucel (hydroxypropylcellulose) (HPC)
[9] = dose: 200.0 mg/kg/injection, schedule: Q01DX009 (ip), vehicle: Klucel (hydroxypropylcellulose) (HPC)
[10] = dose: 200.0 mg/kg/injection, schedule: Q04DX003 (ip), vehicle: Klucel (hydroxypropylcellulose) (HPC)
[11] = dose: 400.0 mg/kg/injection, schedule: Q01DX009 (ip), vehicle: Klucel (hydroxypropylcellulose) (HPC)
[12] = dose: 400.0 mg/kg/injection, schedule: Q04DX003 (ip), vehicle: Klucel (hydroxypropylcellulose) (HPC)
[13] = dose: 100.0 mg/kg/injection, schedule: Q04DX003 (ip), vehicle: saline with Tween-80
[14] = dose: 100.0 mg/kg/injection, schedule: Q01DX001 (ip), vehicle: saline
[15] = dose: 200.0 mg/kg/injection, schedule: Q01DX001 (ip), vehicle: saline
[16] = dose: 400.0 mg/kg/injection, schedule: Q01DX001 (ip), vehicle: saline
[17] = dose: 100.0 mg/kg/injection, schedule: Q04DX002 (ip), vehicle: saline
[18] = dose: 200.0 mg/kg/injection, schedule: Q04DX002 (ip), vehicle: saline
[19] = dose: 400.0 mg/kg/injection, schedule: Q04DX002 (ip), vehicle: saline
[20] = dose: 100.0 mg/kg/injection, schedule: Q04DX003 (ip), vehicle: saline
[21] = dose: 200.0 mg/kg/injection, schedule: Q04DX003 (ip), vehicle: saline
[22] = dose: 400.0 mg/kg/injection, schedule: Q04DX003 (ip), vehicle: saline
[23] = dose: 50.0 mg/kg/injection, schedule: Q04DX002 (ip), vehicle: saline with Tween-80
[24] = dose: 100.0 mg/kg/injection, schedule: Q04DX002 (ip), vehicle: saline with Tween-80
[25] = dose: 200.0 mg/kg/injection, schedule: Q04DX002 (ip), vehicle: saline with Tween-80
[26] = dose: 100.0 mg/kg/injection, schedule: Q01DX001 (ip), vehicle: saline with Tween-80
[27] = dose: 200.0 mg/kg/injection, schedule: Q01DX001 (ip), vehicle: saline with Tween-80
[28] = dose: 400.0 mg/kg/injection, schedule: Q01DX001 (ip), vehicle: saline with Tween-80

Measured: T/C

O=C(Nc1ccccc1F)Oc1cccc2ccccc12
inactive: [1] 113 % of control | [2] 109 % of control | [3] 87 % of control

CCOC(=O)Cn1c(=O)n(CC(=O)OCC)c2ccccc21
inactive: [4] 104 % of control | [5] 100 % of control | [6] 110 % of control

O=[N+]([O-])c1ccc(/C=C/c2ccccc2Br)cc1
inactive: [7] 106 % of control | [8] 100 % of control | [9] 97 % of control | [10] 98 % of control | [11] 97 % of control | [12] 98 % of control

COc1ccc2nc3c4ccccc4scc-3c2c1
inactive: [13] 92 % of control

Nc1ccc2ccc3ccc4ccccc4c3c2c1
inactive: dose: 100.0 mg/kg/injection, schedule: Q01DX001 (ip), vehicle: Klucel (hydroxypropylcellulose) (HPC) 97 % of control | [8] 104 % of control | dose: 200.0 mg/kg/injection, schedule: Q01DX001 (ip), vehicle: Klucel (hydroxypropylcellulose) (HPC) 103 % of control | [10] 113 % of control | dose: 400.0 mg/kg/injection, schedule: Q01DX001 (ip), vehicle: Klucel (hydroxypropylcellulose) (HPC) 100 % of control | [12] 90 % of control

O=C(O)c1ccc([N+](=O)[O-])cc1S(=O)(=O)O
inactive: [14] 102 % of control | [15] 102 % of control | [16] 100 % of control

NCCSCC(N)C(=O)O (centres undefined)
inactive: [17] 92 % of control | [18] 92 % of control | [19] 109 % of control

Cc1cnc2c(=N)n(C(=O)C(F)(F)F)n(C)c2n1
inactive: [7] 104 % of control | [20] 94 % of control | [9] 102 % of control | [21] 110 % of control | [22] 95 % of control

O=C(Nc1ccccc1F)N(CC(O)c1ccccc1)C1CCCCC1 (centres undefined)
inactive: [7] 97 % of control | [9] 95 % of control | [11] 94 % of control

CC1CCCC(CN=Cc2cc([N+](=O)[O-])ccc2O)[N-]1.CC1CCCC(CN=Cc2cc([N+](=O)[O-])ccc2O)[N-]1.[Ni+2] (centres undefined)
inactive: [1] 86 % of control | [13] 95 % of control | [2] 86 % of control | dose: 200.0 mg/kg/injection, schedule: Q04DX003 (ip), vehicle: saline with Tween-80 95 % of control | dose: 400.0 mg/kg/injection, schedule: Q04DX003 (ip), vehicle: saline with Tween-80 86 % of control

CSc1ccc(OCC2CO2)cc1C (centres undefined)
inactive: [17] 96 % of control | [18] 111 % of control | [19] 104 % of control

C1=C[P+](c2ccccc2)(c2ccccc2)CC[P+]1(c1ccccc1)c1ccccc1
inactive: dose: 75.0 mg/kg/injection, schedule: Q01DX001 (ip), vehicle: other 98 % of control | dose: 150.0 mg/kg/injection, schedule: Q01DX001 (ip), vehicle: other 95 % of control

NC(=O)C1(Nc2ccc(-c3ccc(NC4(C(N)=O)CCCC4)cc3)cc2)CCCC1
inactive: dose: 50.0 mg/kg/injection, schedule: Q01DX001 (ip), vehicle: carboxymethylcellulose (CMC) 95 % of control | dose: 100.0 mg/kg/injection, schedule: Q01DX001 (ip), vehicle: carboxymethylcellulose (CMC) 90 % of control | dose: 200.0 mg/kg/injection, schedule: Q01DX001 (ip), vehicle: carboxymethylcellulose (CMC) 93 % of control

O=c1c2ccccc2nc2n1CCC2
inactive: dose: 25.0 mg/kg/injection, schedule: Q01DX001 (ip), vehicle: saline 102 % of control | dose: 50.0 mg/kg/injection, schedule: Q01DX001 (ip), vehicle: saline 93 % of control | dose: 75.0 mg/kg/injection, schedule: Q01DX001 (ip), vehicle: saline 104 % of control

CP1(=O)CCC(=O)C1Br (centres undefined)
inactive: [23] 98 % of control | [24] 95 % of control | [25] 91 % of control

CCOC(=O)CC(=O)CC(C)C
inactive: [8] 101 % of control | [10] 97 % of control | [12] 88 % of control

Oc1ccccc1C=NCCN1CC1.Oc1ccccc1C=NCCN1CC1.[Cu]
inactive: dose: 6.25 mg/kg/injection, schedule: Q01DX001 (ip), vehicle: Klucel (hydroxypropylcellulose) (HPC) 88 % of control | dose: 12.5 mg/kg/injection, schedule: Q01DX001 (ip), vehicle: Klucel (hydroxypropylcellulose) (HPC) 95 % of control | dose: 25.0 mg/kg/injection, schedule: Q01DX001 (ip), vehicle: Klucel (hydroxypropylcellulose) (HPC) 95 % of control

O=[N+]([O-])c1ccc(N/N=C(/Cl)c2ccccc2)cc1
inactive: dose: 50.0 mg/kg/injection, schedule: Q04DX003 (ip), vehicle: saline 101 % of control | [20] 98 % of control | [21] 96 % of control

O=C1CCCCCC/C(=N/O)CCCO1
inactive: [26] 94 % of control | [27] 97 % of control | [28] 97 % of control

Cc1cccnc1NC1=NCCO1
inactive: [1] 100 % of control | [2] 96 % of control | [3] 93 % of control

O=C1N(CO)C2C(N1CO)N(CO)C(=O)N2CO (centres undefined)
inactive: dose: 44.0 mg/kg/injection, schedule: Q04DX003 (ip), vehicle: saline 100 % of control | dose: 66.0 mg/kg/injection, schedule: Q04DX003 (ip), vehicle: saline 103 % of control | dose: 100.0 mg/kg/injection, schedule: Q01DX009 (ip), vehicle: saline 118 % of control | [20] 103 % of control | dose: 150.0 mg/kg/injection, schedule: Q04DX003 (ip), vehicle: saline 102 % of control | dose: 200.0 mg/kg/injection, schedule: Q01DX009 (ip), vehicle: saline 113 % of control | [21] 115 % of control | dose: 400.0 mg/kg/injection, schedule: Q01DX009 (ip), vehicle: saline 116 % of control | [22] 114 % of control

COC(=O)c1ccc(N=Nc2ncc(CCNC(=O)C(F)(F)F)[nH]2)cc1
inactive: [26] 97 % of control | [27] 96 % of control | [28] 111 % of control

CCOC(=O)CCC(NC(=O)c1ccc(NCc2nnc3nc(N)nc(N)c3n2)cc1)C(=O)OCC (centres undefined)
inactive: dose: 25.0 mg/kg/injection, schedule: Q01DX001 (ip), vehicle: saline with Tween-80 100 % of control | dose: 50.0 mg/kg/injection, schedule: Q01DX001 (ip), vehicle: saline with Tween-80 95 % of control | [26] 107 % of control

O=C1C2C3CCC(C4OCCO4)(O3)C2C(=O)N1Cc1ccccc1 (centres undefined)
inactive: [4] 107 % of control | [5] 103 % of control | [6] 96 % of control

S=c1nc[nH]c2c1[nH]c(=S)n2CCc1cnc[nH]1
inactive: dose: 24.0 mg/kg/injection, schedule: Q01DX009 (ip), vehicle: steriod suspending solution 98 % of control | dose: 39.0 mg/kg/injection, schedule: Q01DX009 (ip), vehicle: steriod suspending solution 100 % of control | dose: 65.0 mg/kg/injection, schedule: Q01DX009 (ip), vehicle: steriod suspending solution 102 % of control | dose: 108.0 mg/kg/injection, schedule: Q01DX009 (ip), vehicle: steriod suspending solution 88 % of control | dose: 400.0 mg/kg/injection, schedule: Q01DX001 (ip), vehicle: steriod suspending solution 94 % of control

O=[N+]([O-])c1cc2c(c3cccnc13)COCO2
inactive: [14] 102 % of control | [15] 100 % of control | [16] 94 % of control

Oc1ccccc1-c1nc2ccccc2o1
inactive: [23] 98 % of control | [24] 95 % of control | [25] 92 % of control

[N-]=[N+]=CC(=O)CCC(=O)C=[N+]=[N-]
inactive: dose: 0.75 mg/kg/injection, schedule: Q01DX009 (ip), vehicle: other 98 % of control | dose: 1.5 mg/kg/injection, schedule: Q01DX009 (ip), vehicle: other 116 % of control | dose: 6.0 mg/kg/injection, schedule: Q01DX009 (ip), vehicle: other 116 % of control
